# Values quoted from earlier work, collected in patent US20100135984A1, “Anti-inflammatory compositions and methods” (Searete LLC, a limited liability corporation of the State …, priority 2008, published 2010).
# Key:
# [1] = single agent, infused at 400 mg over one hour
# [2] = mice
# Fyn = Fyn (Homo sapiens, UniProt P06241); conditions: at nanomolar concentrations
# proteasome = conditions: cultured breast cancer cells; copper-bound
# Chain of Fyn (P06241 whole entry, species assumed): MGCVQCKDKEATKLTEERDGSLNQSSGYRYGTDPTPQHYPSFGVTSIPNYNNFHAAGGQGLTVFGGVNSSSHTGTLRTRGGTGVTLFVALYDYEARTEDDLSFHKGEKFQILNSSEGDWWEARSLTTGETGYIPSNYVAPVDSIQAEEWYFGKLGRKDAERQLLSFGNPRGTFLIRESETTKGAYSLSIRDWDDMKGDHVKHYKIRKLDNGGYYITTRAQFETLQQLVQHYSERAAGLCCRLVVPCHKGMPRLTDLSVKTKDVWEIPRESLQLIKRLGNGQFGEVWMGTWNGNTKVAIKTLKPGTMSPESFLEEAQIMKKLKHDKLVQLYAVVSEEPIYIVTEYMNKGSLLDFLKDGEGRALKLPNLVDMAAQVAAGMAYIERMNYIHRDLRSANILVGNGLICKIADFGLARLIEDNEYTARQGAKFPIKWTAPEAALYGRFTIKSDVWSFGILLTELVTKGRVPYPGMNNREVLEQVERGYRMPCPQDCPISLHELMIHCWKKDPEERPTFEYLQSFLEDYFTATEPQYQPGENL
structure (smiles),measurement,setting,value
"CCN(CC)CCCC(C)Nc1ccnc2cc(Cl)ccc12.O=P(O)(O)O.O=P(O)(O)O (stereo not drawn) [chloroquine phosphate, 7-chloro-4-[[4-(diethylamino)-1-methylbutyl]amino]quinoline phosphate (1:2)]",tolerability of infusion,[1],without complication
"Cl.Cl.Nc1ccccc1Oc1ccc2c(N)nsc2c1 [Example M62812, 3-amino-6-(2-aminophenoxy)-1,2-benzisothiazole dihydrochloride]",prevention of lethal septic shock,[2],prevents lethal septic shock
CCN(CC)CCCC(C)Nc1ccnc2cc(Cl)ccc12 (stereo not drawn) [Chloroquine],inhibition of CpG-induced Src family kinase activation or its dependent cellular responses,Src family kinase,does not inhibit
"Cc1nc(Nc2ncc(C(=O)Nc3c(C)cccc3Cl)s2)cc(N2CCN(CCO)CC2)n1.O [dasatinib, N-(2-chloro-6-methylphenyl)-2-[[6-[4-(2-hydroxyethyl)-1-piperazinyl]-2-methyl-4-pyrimidinyl]amino]-5-thiazolecarboxamide, monohydrate]",inhibition of Fyn,Fyn,inhibits
"CCN(CC)C(=S)SSC(=S)N(CC)CC [disulfiram, 1-(diethylthiocarbamoyldisulfanyl)-N,N-diethyl-methanethioamide]",proteasomal activity,proteasome,inhibits proteasomal activity
same,inhibition of aldehyde dehydrogenase,aldehyde dehydrogenase,inhibits aldehyde dehydrogenase without toxicity
